In ChEMBL document CHEMBL4725221, “Thiazoles, Their Benzofused Systems, and Thiazolidinone Derivatives: Versatile and Promising Tools to Combat Antibiotic Resistance” (J Med Chem, 2020):
Values after ≈ are worked out from the molar mass of the structure shown.

Experiments:
Staphylococcus aureus [1] = assay: Antibacterial activity against Staphylococcus aureus ATCC 25923 by CLSI protocol based microdilution method; assay type: functional, organism-based
Staphylococcus aureus [2] = assay: Antibacterial activity against Staphylococcus aureus ATCC 6538 by CLSI protocol based microdilution method; assay type: functional, organism-based
Staphylococcus aureus [3] = assay: Antibacterial activity against Staphylococcus aureus MTCC 121 after 7 days by two-fold serial dilution method; assay type: functional; conditions: MTCC 121, 168 h, time 7 day
Pseudomonas aeruginosa [4] = assay: Antibacterial activity against Pseudomonas aeruginosa MTCC 2453 after 7 days by two-fold serial dilution method; assay type: functional; conditions: MTCC 2453, 168 h, time 7 day
Escherichia coli [5] = assay: Antibacterial activity against Escherichia coli MTCC 40 after 7 days by two-fold serial dilution method; assay type: functional; conditions: MTCC 40, 168 h, time 7 day
Bacillus subtilis = assay: Antibacterial activity against Bacillus subtilis […] after 7 days by two-fold serial dilution method; assay type: functional; conditions: 168 h, time 7 day
Escherichia coli [6] = assay: Antibacterial activity against Escherichia coli AG102; assay type: functional
Escherichia coli [7] = assay: Antibacterial activity against Escherichia coli AG102 in presence of ciprofloxacin; assay type: functional
Listeria monocytogenes = assay: Antibacterial activity against Listeria monocytogenes ATCC 19115 after 24 hrs by CLSI protocol based cup-plate agar diffusion method; assay type: functional
Pseudomonas aeruginosa [8] = assay: Antibacterial activity against Pseudomonas aeruginosa ATCC 27853 after 24 hrs by CLSI protocol based cup-plate agar diffusion method; assay type: functional
Salmonella typhimurium = assay: Antibacterial activity against Salmonella typhimurium ATCC 14028 after 24 hrs by CLSI protocol based cup-plate agar diffusion method; assay type: functional, Salmonella enterica subsp. enterica serovar Typhimurium; conditions: Salmonella enterica
Staphylococcus aureus [9] = assay: Antibacterial activity against Staphylococcus aureus ATCC 49444 after 24 hrs by CLSI protocol based cup-plate agar diffusion method; assay type: functional
Enterococcus faecalis [10] = assay: Antibacterial activity against Enterococcus faecalis; assay type: functional
Enterococcus faecalis [11] = assay: Antibiofilm activity against Enterococcus faecalis; assay type: functional

Structure (SMILES)	MIC (Staphylococcus aureus [3]) [µg/mL]	MIC (Pseudomonas aeruginosa [4]) [µg/mL]	MIC (Escherichia coli [5]) [µg/mL]	MIC (Bacillus subtilis) [µg/mL]	MIC (Escherichia coli [6]) [µg/mL]	MIC (Escherichia coli [7]) [µg/mL]	further results
COCCn1cc(-c2nc(-c3cn(C)c4ccccc34)cs2)c2cc(OC)ccc21							IC50 (Staphylococcus aureus [1]): 1.2 µg/mL (≈ 2.87 µM); IC50 (Staphylococcus aureus [2]): 11.5 µg/mL (≈ 27.5 µM)
COc1ccc(CC(=O)Nc2ccc(-c3nc4ccccc4s3)cc2)cc1					256 (≈ 684 µM)	0.008	
CC(C)(C)OC(=O)NCCn1cc(-c2nc(-c3c[nH]c4ccccc34)cs2)c2ccccc21							IC50 (Staphylococcus aureus [1]): 3.9 µg/mL (≈ 8.5 µM); IC50 (Staphylococcus aureus [2]): 5.2 µg/mL (≈ 11.3 µM)
CCCCOc1ccc(C(=O)Nc2ccc(-c3nc4ccccc4s3)cc2)cc1					64 (≈ 159 µM)	0.5	
O=C(Nc1ccc(Cc2nc3ccccc3s2)cc1)c1ccc(Br)cc1					128 (≈ 302 µM)	0.03	
Cc1nc(-c2ccccc2)sc1-c1nnc(S)n1/N=C\c1ccc(Br)cc1							MIC (Listeria monocytogenes): 1.9 µg/mL (≈ 4.16 µM); MIC (Pseudomonas aeruginosa [8]): 1.9 µg/mL (≈ 4.16 µM); MIC (Salmonella typhimurium): 62.5 µg/mL (≈ 137 µM); MIC (Staphylococcus aureus [9]): 31.2 µg/mL (≈ 68.4 µM)
Cc1nc(-c2ccccc2)sc1-c1nnc(S)n1/N=C\c1ccc([N+](=O)[O-])cc1							MIC (Listeria monocytogenes): 1.9 µg/mL (≈ 4.5 µM); MIC (Pseudomonas aeruginosa [8]): 1.9 µg/mL (≈ 4.5 µM); MIC (Salmonella typhimurium): 62.5 µg/mL (≈ 148 µM); MIC (Staphylococcus aureus [9]): 62.5 µg/mL (≈ 148 µM)
O=C(CCCCc1ccccc1)Nc1ccc(-c2nc3ccccc3s2)cc1					512 (≈ 1320 µM)	0.004	
CCc1ccc(C(=O)Nc2ccc(-c3nc4ccccc4s3)cc2)cc1					128 (≈ 357 µM)	0.016	
c1ccc(-c2nc(-c3cccc(-c4nc(-c5cccc6ccccc56)cs4)c3)cs2)cc1							MIC (Enterococcus faecalis [10]): 16 µg/mL (≈ 35.8 µM); MBIC (Enterococcus faecalis [11]): 0.004 mg/mL
CCc1ccc(C(=O)Nc2ccc(Cc3nc4ccccc4s3)cc2)cc1					64 (≈ 172 µM)	0.06	
O=C(Nc1ccc(Cc2nc3ccccc3s2)cc1)c1ccc([N+](=O)[O-])cc1					128 (≈ 329 µM)	0.06	
COCCn1cc(-c2csc(-c3cn(C)c4ccc(Br)cc34)n2)c2ccccc21							IC50 (Staphylococcus aureus [1]): 2.5 µg/mL (≈ 5.36 µM)
NC(=O)c1cc(-c2csc(-c3cccc(-c4csc(-c5ccccc5)n4)c3)n2)ccc1O							MIC (Enterococcus faecalis [10]): 250 µg/mL (≈ 549 µM); MBIC (Enterococcus faecalis [11]): 0.008 mg/mL

More lines, main results first:

MIC (Staphylococcus aureus [3]) [µg/mL]	MIC (Pseudomonas aeruginosa [4]) [µg/mL]	MIC (Escherichia coli [5]) [µg/mL]	MIC (Bacillus subtilis) [µg/mL]	MIC (Escherichia coli [6]) [µg/mL]	MIC (Escherichia coli [7]) [µg/mL]	Structure (SMILES)	further results
3.12 (≈ 5.76 µM)	6.25 (≈ 11.5 µM)	12.5 (≈ 23.1 µM)	6.25 (≈ 11.5 µM)			O=C(NN1C(=O)/C(=C/c2cccc(Br)c2)SC1c1ccccc1)c1ccc(-c2ccccc2)cc1 (stereo not given)	
				256 (≈ 775 µM)	0.03	O=C(Nc1ccc(-c2nc3ccccc3s2)cc1)c1ccccc1	
6.25 (≈ 12.7 µM)	6.25 (≈ 12.7 µM)	6.25 (≈ 12.7 µM)	1.56 (≈ 3.17 µM)			COc1cccc(/C=C2\SC(c3ccccc3)N(NC(=O)c3ccc(-c4ccccc4)cc3)C2=O)c1 (stereo not given)	
3.12 (≈ 5.03 µM)	6.25 (≈ 10.1 µM)	6.25 (≈ 10.1 µM)	3.12 (≈ 5.03 µM)			O=C(NN1C(=O)/C(=C/c2cccc(Br)c2)SC1c1cccc(Br)c1)c1ccc(-c2ccccc2)cc1 (stereo not given)	
3.12 (≈ 5.76 µM)	3.12 (≈ 5.76 µM)	6.25 (≈ 11.5 µM)	3.12 (≈ 5.76 µM)			O=C(NN1C(=O)/C(=C/c2ccccc2)SC1c1cccc(Br)c1)c1ccc(-c2ccccc2)cc1 (stereo not given)	
3.12 (≈ 5.46 µM)	12.5 (≈ 21.9 µM)	1.56 (≈ 2.73 µM)	1.56 (≈ 2.73 µM)			COc1ccc(/C=C2\SC(c3cccc(Br)c3)N(NC(=O)c3ccc(-c4ccccc4)cc3)C2=O)cc1 (stereo not given)	
6.25 (≈ 10.9 µM)	6.25 (≈ 10.9 µM)	12.5 (≈ 21.7 µM)	6.25 (≈ 10.9 µM)			O=C(NN1C(=O)/C(=C/c2ccc(Cl)cc2)SC1c1cccc(Br)c1)c1ccc(-c2ccccc2)cc1 (stereo not given)	
3.12 (≈ 6.15 µM)	3.12 (≈ 6.15 µM)	6.25 (≈ 12.3 µM)	1.56 (≈ 3.07 µM)			O=C(NN1C(=O)/C(=C/c2cccc([N+](=O)[O-])c2)SC1c1ccccc1)c1ccc(-c2ccccc2)cc1 (stereo not given)	
6.25 (≈ 11.9 µM)	3.12 (≈ 5.94 µM)	12.5 (≈ 23.8 µM)	6.25 (≈ 11.9 µM)			O=C(NN1C(=O)/C(=C/c2cccc([N+](=O)[O-])c2)SC1c1cccc(F)c1)c1ccc(-c2ccccc2)cc1 (stereo not given)	
